The subject of one experiment is NCI/ADR-RES. Nature of the experiment: NCI-60 single-dose screen. The format is cell-based. Conditions: Homo sapiens, single dose 10 µM, '-' = no inhibition, read-out: % Growth Inhibition. An outline of the steps: (§1)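 Single concentration of 10 μM applied to every line of the 60-cell-line NCI panel. Testing performed by NCI DTP.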
By inhibition is commonly meant the relative decrease from the control value, in per cent. For `CCSc1nc(-c2ccc(Cl)cc2)cc(-c2ccc(OC)c(OC)c2)n1` [Compound 24, 4-(4-Chlorophenyl)-2-(ethylthio)-6-(3,4-dimethoxyphenyl)pyrimidine], the inhibition at 10 µM amounted to 17.5%.

Another experiment relates to SK-OV-3. Description: NCI-60 single-dose screen. The format is cell-based. The following applies: Homo sapiens, single dose 10 µM, '-' = no inhibition, read-out: % Growth Inhibition. An outline of the steps: as §1
Regarding `CCSc1nc(-c2ccc(Cl)cc2)cc(-c2ccc(OC)c(OC)c2)n1` [Compound 24, 4-(4-Chlorophenyl)-2-(ethylthio)-6-(3,4-dimethoxyphenyl)pyrimidine], the inhibition at 10 µM is below 0%.

Another experiment concerns 786-0. Nature of the experiment: NCI-60 single-dose screen. The format is cell-based. The following applies: Homo sapiens, single dose 10 µM, '-' = no inhibition, read-out: % Growth Inhibition. An outline of the steps: as §1
As to `CCSc1nc(-c2ccc(Cl)cc2)cc(-c2ccc(OC)c(OC)c2)n1` [Compound 24, 4-(4-Chlorophenyl)-2-(ethylthio)-6-(3,4-dimethoxyphenyl)pyrimidine], the inhibition at 10 µM was found to be 11.8%.

The next experiment has as its system HCC-2998. Description: NCI-60 single-dose screen. The format is cell-based. The following applies: Homo sapiens, single dose 10 µM, '-' = no inhibition, read-out: % Growth Inhibition. An outline of the steps:
as §1
With `CCSc1nc(-c2ccc(Cl)cc2)cc(-c2ccc(OC)c(OC)c2)n1` [Compound 24, 4-(4-Chlorophenyl)-2-(ethylthio)-6-(3,4-dimethoxyphenyl)pyrimidine], the inhibition at 10 µM is 4.44%.

Another experiment relates to SF-539. Description: NCI-60 single-dose screen. Conditions: Homo sapiens, single dose 10 µM, '-' = no inhibition, read-out: % Growth Inhibition. The format is cell-based. An outline of the steps: as §1
In the case of `CCSc1nc(-c2ccc(Cl)cc2)cc(-c2ccc(OC)c(OC)c2)n1` [Compound 24, 4-(4-Chlorophenyl)-2-(ethylthio)-6-(3,4-dimethoxyphenyl)pyrimidine], the inhibition at 10 µM came out at 7.9%.

Another experiment relates to MALME-3M. Nature of the experiment: NCI-60 single-dose screen. The format is cell-based. Conditions: Homo sapiens, single dose 10 µM, '-' = no inhibition, read-out: % Growth Inhibition. A digest of the protocol: as §1
Turning to `CCSc1nc(-c2ccc(Cl)cc2)cc(-c2ccc(OC)c(OC)c2)n1` [Compound 24, 4-(4-Chlorophenyl)-2-(ethylthio)-6-(3,4-dimethoxyphenyl)pyrimidine], the inhibition at 10 µM was below 0%.

The test system of a further experiment is NCI-H460. Description: NCI-60 single-dose screen. In kind it is cell-based. The following applies: Homo sapiens, single dose 10 µM, '-' = no inhibition, read-out: % Growth Inhibition. An outline of the steps: as §1
Regarding `CCSc1nc(-c2ccc(Cl)cc2)cc(-c2ccc(OC)c(OC)c2)n1` [Compound 24, 4-(4-Chlorophenyl)-2-(ethylthio)-6-(3,4-dimethoxyphenyl)pyrimidine], the inhibition at 10 µM was below 0%.

Another experiment concerns SR. Nature of the experiment: NCI-60 single-dose screen. In kind it is cell-based. The following applies: Homo sapiens, single dose 10 µM, '-' = no inhibition, read-out: % Growth Inhibition. A digest of the protocol:
as §1
`CCSc1nc(-c2ccc(Cl)cc2)cc(-c2ccc(OC)c(OC)c2)n1` [Compound 24, 4-(4-Chlorophenyl)-2-(ethylthio)-6-(3,4-dimethoxyphenyl)pyrimidine]: the inhibition at 10 µM came out at 39.6%.

For the next experiment, the system named is NCI-H322M. Nature of the experiment: NCI-60 single-dose screen. Conditions: Homo sapiens, single dose 10 µM, '-' = no inhibition, read-out: % Growth Inhibition. The format is cell-based. An outline of the steps: as §1
As to `CCSc1nc(-c2ccc(Cl)cc2)cc(-c2ccc(OC)c(OC)c2)n1` [Compound 24, 4-(4-Chlorophenyl)-2-(ethylthio)-6-(3,4-dimethoxyphenyl)pyrimidine], the inhibition at 10 µM is 13.8%.

For a further experiment, the system named is SNB-75. Description: NCI-60 single-dose screen. In kind it is cell-based. The following applies: Homo sapiens, single dose 10 µM, '-' = no inhibition, read-out: % Growth Inhibition. An outline of the steps: as §1
In the case of `CCSc1nc(-c2ccc(Cl)cc2)cc(-c2ccc(OC)c(OC)c2)n1` [Compound 24, 4-(4-Chlorophenyl)-2-(ethylthio)-6-(3,4-dimethoxyphenyl)pyrimidine], the inhibition at 10 µM amounted to 6.37%.

The subject of another experiment is ACHN 1. Nature of the experiment: NCI-60 single-dose screen. The format is cell-based. Conditions: Homo sapiens, single dose 10 µM, '-' = no inhibition, read-out: % Growth Inhibition. A digest of the protocol: as §1
With `CCSc1nc(-c2ccc(Cl)cc2)cc(-c2ccc(OC)c(OC)c2)n1` [Compound 24, 4-(4-Chlorophenyl)-2-(ethylthio)-6-(3,4-dimethoxyphenyl)pyrimidine], the inhibition at 10 µM came to 7.24%.

The subject of the next experiment is COLO 205. Description: NCI-60 single-dose screen. The format is cell-based. Conditions: Homo sapiens, single dose 10 µM, '-' = no inhibition, read-out: % Growth Inhibition. A digest of the protocol: as §1
Regarding `CCSc1nc(-c2ccc(Cl)cc2)cc(-c2ccc(OC)c(OC)c2)n1` [Compound 24, 4-(4-Chlorophenyl)-2-(ethylthio)-6-(3,4-dimethoxyphenyl)pyrimidine], the inhibition at 10 µM worked out at 35.4%.

The next experiment concerns T-47D. Nature of the experiment: NCI-60 single-dose screen. The format is cell-based. Conditions: Homo sapiens, T47D, single dose 10 µM, '-' = no inhibition, read-out: % Growth Inhibition. An outline of the steps:
as §1
In the case of `CCSc1nc(-c2ccc(Cl)cc2)cc(-c2ccc(OC)c(OC)c2)n1` [Compound 24, 4-(4-Chlorophenyl)-2-(ethylthio)-6-(3,4-dimethoxyphenyl)pyrimidine], the inhibition at 10 µM turned out to be 37.6%.

In a further experiment the test system is LOX IMVI. Description: NCI-60 single-dose screen. In kind it is cell-based. Conditions: Homo sapiens, single dose 10 µM, '-' = no inhibition, read-out: % Growth Inhibition. A digest of the protocol:
as §1
For the compound `CCSc1nc(-c2ccc(Cl)cc2)cc(-c2ccc(OC)c(OC)c2)n1` [Compound 24, 4-(4-Chlorophenyl)-2-(ethylthio)-6-(3,4-dimethoxyphenyl)pyrimidine], the inhibition at 10 µM amounted to 11.9%.

The next experiment concerns SK-MEL-2. Nature of the experiment: NCI-60 single-dose screen. The format is cell-based. The following applies: Homo sapiens, single dose 10 µM, '-' = no inhibition, read-out: % Growth Inhibition. A digest of the protocol: as §1
In the case of `CCSc1nc(-c2ccc(Cl)cc2)cc(-c2ccc(OC)c(OC)c2)n1` [Compound 24, 4-(4-Chlorophenyl)-2-(ethylthio)-6-(3,4-dimethoxyphenyl)pyrimidine], the inhibition at 10 µM is 11.9%.

The test system of a further experiment is A498. Description: NCI-60 single-dose screen. The format is cell-based. The following applies: Homo sapiens, single dose 10 µM, '-' = no inhibition, read-out: % Growth Inhibition. An outline of the steps:
as §1
For `CCSc1nc(-c2ccc(Cl)cc2)cc(-c2ccc(OC)c(OC)c2)n1` [Compound 24, 4-(4-Chlorophenyl)-2-(ethylthio)-6-(3,4-dimethoxyphenyl)pyrimidine], the inhibition at 10 µM is 1.95%.

The next experiment concerns TK-10. Nature of the experiment: NCI-60 single-dose screen. The format is cell-based. Conditions: Homo sapiens, single dose 10 µM, '-' = no inhibition, read-out: % Growth Inhibition. An outline of the steps:
as §1
Take `CCSc1nc(-c2ccc(Cl)cc2)cc(-c2ccc(OC)c(OC)c2)n1` [Compound 24, 4-(4-Chlorophenyl)-2-(ethylthio)-6-(3,4-dimethoxyphenyl)pyrimidine]: the inhibition at 10 µM was below 0%.

A further experiment has as its system OVCAR-5. Nature of the experiment: NCI-60 single-dose screen. The format is cell-based. The following applies: Homo sapiens, single dose 10 µM, '-' = no inhibition, read-out: % Growth Inhibition. A digest of the protocol:
as §1
`CCSc1nc(-c2ccc(Cl)cc2)cc(-c2ccc(OC)c(OC)c2)n1` [Compound 24, 4-(4-Chlorophenyl)-2-(ethylthio)-6-(3,4-dimethoxyphenyl)pyrimidine]: the inhibition at 10 µM worked out at 11%.

For a further experiment, the system named is SNB-19. Nature of the experiment: NCI-60 single-dose screen. In kind it is cell-based. Conditions: Homo sapiens, single dose 10 µM, '-' = no inhibition, read-out: % Growth Inhibition. An outline of the steps: as §1
As for `CCSc1nc(-c2ccc(Cl)cc2)cc(-c2ccc(OC)c(OC)c2)n1` [Compound 24, 4-(4-Chlorophenyl)-2-(ethylthio)-6-(3,4-dimethoxyphenyl)pyrimidine], the inhibition at 10 µM stood at 3.01%.

For a further experiment, the system named is EKVX. Description: NCI-60 single-dose screen. The format is cell-based. The following applies: Homo sapiens, single dose 10 µM, '-' = no inhibition, read-out: % Growth Inhibition. An outline of the steps:
as §1
As for `CCSc1nc(-c2ccc(Cl)cc2)cc(-c2ccc(OC)c(OC)c2)n1` [Compound 24, 4-(4-Chlorophenyl)-2-(ethylthio)-6-(3,4-dimethoxyphenyl)pyrimidine], the inhibition at 10 µM was 20.4%.

In a further experiment the test system is HL-60(TB). Nature of the experiment: NCI-60 single-dose screen. In kind it is cell-based. Conditions: Homo sapiens, single dose 10 µM, '-' = no inhibition, read-out: % Growth Inhibition.
For `CCSc1nc(-c2ccc(Cl)cc2)cc(-c2ccc(OC)c(OC)c2)n1` [Compound 24, 4-(4-Chlorophenyl)-2-(ethylthio)-6-(3,4-dimethoxyphenyl)pyrimidine], the inhibition at 10 µM was 22.8%.

The next experiment has as its system BT-549. Nature of the experiment: NCI-60 single-dose screen. In kind it is cell-based. Conditions: Homo sapiens, single dose 10 µM, '-' = no inhibition, read-out: % Growth Inhibition. An outline of the steps:
as §1
As to `CCSc1nc(-c2ccc(Cl)cc2)cc(-c2ccc(OC)c(OC)c2)n1` [Compound 24, 4-(4-Chlorophenyl)-2-(ethylthio)-6-(3,4-dimethoxyphenyl)pyrimidine], the inhibition at 10 µM was below 0%.

In a further experiment the test system is SK-MEL-28. Description: NCI-60 single-dose screen. In kind it is cell-based. The following applies: Homo sapiens, single dose 10 µM, '-' = no inhibition, read-out: % Growth Inhibition. An outline of the steps:
as §1
For the compound `CCSc1nc(-c2ccc(Cl)cc2)cc(-c2ccc(OC)c(OC)c2)n1` [Compound 24, 4-(4-Chlorophenyl)-2-(ethylthio)-6-(3,4-dimethoxyphenyl)pyrimidine], the inhibition at 10 µM worked out at 5.5%.

These data come from article PMC11576293, “New series of 4,6-diaryl pyrimidines: facile synthesis and antiproliferative activity as dual EGFR/VEGFR-2 inhibitors” (Frontiers in Chemistry, 2024).
